Assay results from ChEMBL document CHEMBL4433198, “Fragment-to-Lead Medicinal Chemistry Publications in 2017” (J Med Chem, 2019).

Target: Induced myeloid leukemia cell differentiation protein Mcl-1 (Homo sapiens, UniProt Q07820)
Test: Binding affinity to MCL1 (unknown origin) assessed as inhibition of Mcl1-FAMbid protein-protein interaction after 1 min by fluorescence polarization assay

Sequence of Induced myeloid leukemia cell differentiation protein Mcl-1 (Q07820 whole entry): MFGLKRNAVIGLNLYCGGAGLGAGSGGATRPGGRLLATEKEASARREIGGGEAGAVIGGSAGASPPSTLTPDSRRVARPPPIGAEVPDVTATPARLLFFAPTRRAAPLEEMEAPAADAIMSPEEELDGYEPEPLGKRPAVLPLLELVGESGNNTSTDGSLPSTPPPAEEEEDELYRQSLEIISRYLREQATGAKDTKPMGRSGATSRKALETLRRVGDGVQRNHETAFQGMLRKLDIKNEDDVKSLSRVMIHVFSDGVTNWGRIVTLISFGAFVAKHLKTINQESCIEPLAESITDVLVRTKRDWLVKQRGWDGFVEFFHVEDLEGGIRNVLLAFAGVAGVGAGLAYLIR

Kd: 480 nM
SMILES: O=C(O)c1cc2ccccc2n1S(=O)(=O)c1ccc(OCc2cccc(Cl)c2)cc1
